Experimental data taken from article PMC6449863, “Rational Design of Antiangiogenic Helical Oligopeptides Targeting the Vascular Endothelial Growth Factor Receptors” (Frontiers in Chemistry, 2019).
Square brackets hold non-standard residues; d marks the D form. Peptide text beside a SMILES is read from it. Aib = CC(C)(N)C(=O)O

How the values were obtained:
[1] = target: T1, extracellular domain of VEGFR-1 (Homo sapiens, UniProt P17948); test: Chemiluminescent assay: inhibition of biotinylated VEGF165 binding to isolated VEGFR-1; conditions: peptide at 500 μM; chemiluminescence read-out
T1 construct: the extracellular domain of VEGFR-1; purchased R&D Systems
T1 sequence (P17948 27-758 limits assumed): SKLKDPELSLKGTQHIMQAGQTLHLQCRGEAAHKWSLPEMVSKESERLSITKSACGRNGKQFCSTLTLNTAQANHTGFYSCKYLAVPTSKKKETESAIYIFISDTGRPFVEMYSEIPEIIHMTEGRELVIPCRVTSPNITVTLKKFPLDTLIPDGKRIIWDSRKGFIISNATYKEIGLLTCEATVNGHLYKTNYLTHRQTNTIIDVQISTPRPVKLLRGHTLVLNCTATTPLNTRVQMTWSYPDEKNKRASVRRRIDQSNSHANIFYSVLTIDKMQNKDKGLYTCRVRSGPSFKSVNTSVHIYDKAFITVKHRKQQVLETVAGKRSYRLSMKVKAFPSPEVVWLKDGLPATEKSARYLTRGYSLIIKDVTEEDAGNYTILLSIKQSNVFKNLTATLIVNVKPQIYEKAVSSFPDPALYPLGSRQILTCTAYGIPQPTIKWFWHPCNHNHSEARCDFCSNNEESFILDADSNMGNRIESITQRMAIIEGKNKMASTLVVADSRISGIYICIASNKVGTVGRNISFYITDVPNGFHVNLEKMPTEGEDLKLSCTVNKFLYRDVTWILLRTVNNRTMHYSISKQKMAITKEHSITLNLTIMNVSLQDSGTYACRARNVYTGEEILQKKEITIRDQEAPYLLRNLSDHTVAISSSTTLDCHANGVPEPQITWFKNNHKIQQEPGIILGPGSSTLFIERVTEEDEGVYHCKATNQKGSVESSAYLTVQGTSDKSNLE
From the text: A chemiluminescent assay to determine the inhibition of complex formation between VEGF-A (isoform VEGF165) and the extracellular domain of VEGFR-1 (Goncalves et al., [2007]; García-Aranda et al., [2013]) had been previously employed in our group (Zanella et al., [2015]). VEGF-C (from which analogue 1 was derived) is not selective for VEGFR-1 (Su et al., [2007]), but unfortunately the same assay protocol turned out to be ineffective with VEGFR-2, at least in our hands. The assay based on VEGFR-1 was therefore applied here as a very stringent test of the affinity of our peptides for VEGFRs, and to assess the different peptides comparatively. All peptides were able to inhibit complex formation (Table 3), although in the high micromolar range. […] Further studies were focused on analogues 5 and 6, considering also the higher stability of their secondary structure, which affects resistance to proteolytic degradation.
The chemiluminescent screening assay for the detection of VEGFR-1 ligands was accomplished according to the procedure described in the Supporting Information. […]
horseradish peroxidase diluted at 1:1000 in PBS containing 0.1% (v/v) Tween 20 and 0.3% (w/v) BSA were added per well. Af ter 1 h of incubation at r.t., the plate was washed f ive times with 150 μL of buffer A and 100 μL of SuperSignal W est Pico Chemiluminescent Substrate (Pierce, Rockford, IL, USA) were added. The remaining bt-VEGF165 was detected by chemiluminescence, which was quantif ied with a Synergy™ HT Multi -Detection Microplate Reader (BioTek Instruments, Inc.). The percentages of btVEGF165 displacement were calculated by the following formula: percentage of displacement = 100×[1−( S−NS) / (MS−NS)], where S is the signal measured, NS is the nonspecific binding signal and MS is the maximum binding signal observed with btVEGF165 without tested compounds. […]
loading: 0.5 mmol/g) were used.
Each coupling step consisted in:
1) activation of the Fmoc-protected amino acid;
2) addition of the activated amino acid to the resin at the synthesizer to start the coupling; 3) steps of capping, deprotection and washing.
To perform the automated SPPS, two solutions and two solvents were prepared: 25% Ac2O in DMF (v/v), 25% piperidine in DMF (v/v), methanol and DMF. W hile MeOH was used only as washing solvent, DMF was necessary either for washings and as solvent for the reactions of coupling, capping and deprotection. […]

pronase = test: Resistance to proteolytic degradation, pronase; type: in vitro ADME; conditions: Tris·HCl 20 mM with 20 mM CaCl2 pH 7.6, 37°C, RP-HPLC C18 read-out
Protocol: (§1) The proteolytic stability of peptides 1, 5, and 6 was assessed against three enzymes: pronase, trypsin and chymotrypsin (Sigma-Aldrich). Each peptide was dissolved in the appropriate buffer [i.e., (2-amino-2-hydroxymethyl-propane-1,3-diol (Tris)·HCl 20 mM, containing 20 mM CaCl2 pH 7.6 for pronase; Tris·HCl 50 mM, pH 7.8 for trypsin and chymotrypsin). Then, it was incubated with and without the enzyme solution (1.25 μg of enzyme in […] buffer) at 37°C for 12 h. The mixture was analyzed by RP-HPLC (column: Phenomenex Jupiter 5 μ C18 300 Å) every ten minutes for the first hour, then every half hour. Gradients: 5–25%B in 10 min for peptide 1; 15–35%B in 10 min for peptide 5; 15–25%B in 10 min for peptide 6. Eluants: A, H2O:CH3CN 9/1 + 0.05% trifluoroacetic acid (TFA); B: CH3CN:H2O 9/1 + 0.05% TFA.

trypsin = test: Resistance to proteolytic degradation, trypsin; type: in vitro ADME; conditions: Tris·HCl 50 mM pH 7.8, 37°C, RP-HPLC C18 read-out
Protocol: as §1

chymotrypsin = test: Resistance to proteolytic degradation, chymotrypsin; type: in vitro ADME; conditions: Tris·HCl 50 mM pH 7.8, 37°C, RP-HPLC C18 read-out
Protocol: as §1

[2] = target: T1, extracellular domain of VEGFR-1; conditions: chemiluminescent VEGFR-1 ligand screening assay; ref Zanella et al., 2015; read-out: IC50 of unlabeled VEGF165 (reference compound); cited from earlier work
From the text: The chemiluminescent screening assay for the detection of VEGFR-1 ligands was accomplished according to the procedure described in the Supporting Information.

Row | Compound | inhibition at 500 µM [1] [%] | further results
1 | Ac-WDNEWRKTW-NH2 [Peptide 2] | 29 ± 7 | 
2 | VEGF165: VEGF-A isoform VEGF165, unlabeled, employed as reference compound in the VEGFR-1 assay |  | IC50 [2]: 0.146 nM

The next lines start with results.

Row | inhibition at 500 µM [1] [%] | Compound | further results
3 | 86 ± 1 | CC[C@H](C)[C@H](NC(=O)C(C)(C)NC(C)=O)C(=O)N[C@@H](CC(=O)O)C(=O)N[C@@H](CC(N)=O)C(=O)NC(C)(C)C(=O)N[C@@H](Cc1c[nH]c2ccccc12)C(=O)N[C@@H](CCCNC(=N)N)C(=O)N[C@@H](CCCCN)C(=O)NC(C)(C)C(=O)N[C@@H](CCC(N)=O)C(N)=O [Peptide 3, Ac-Aib-Ile-Asp-As n -Aib-Trp-Arg -Lys-Aib-Gln-amide] (Ac-[Aib]IDN[Aib]WRK[Aib]Q-NH2) | 
4 | 40 ± 10 | CC(=O)NC(C)(C)C(=O)N[C@@H](Cc1c[nH]c2ccccc12)C(=O)N[C@@H](CC(=O)O)C(=O)N[C@@H](CC(N)=O)C(=O)NC(C)(C)C(=O)N[C@@H](Cc1c[nH]c2ccccc12)C(=O)N[C@@H](CCCNC(=N)N)C(=O)N[C@@H](CCCCN)C(=O)NC(C)(C)C(=O)N[C@@H](Cc1c[nH]c2ccccc12)C(N)=O [Peptide 4, Ac-Aib-Trp- Asp-Asn-Aib-Trp- Arg -Lys-Aib-Trp-amide] (Ac-[Aib]WDN[Aib]WRK[Aib]W-NH2) | 
5 | 27 ± 1 | Ac-IDNEWRKTQ-NH2 [Peptide 1, Ac-Ile-Asp-Asn-Glu-Trp-Arg -Lys-T hr -Gln-amide] | time within which peptide was degraded by pronase (pronase): ≤ 15 min; time within which peptide was degraded by trypsin (trypsin): ≤ 15 min; time within which peptide was degraded by chymotrypsin (chymotrypsin): ≤ 15 min
